In patent US12139520B2 (priority 2020, dated 2024):
Numbered stars: 1 amine (or outer) side, 2 acyl side, 3 side chain; on linkers, the order of the positions; unused ones are H or OH. Bridge positions count the residues as written; N and C are the ends. Square brackets hold non-standard residues; d marks the D form. Peptide text beside a SMILES is read from it. * marks the point of attachment. C20 diacid = O=C(O)CCCCCCCCCCCCCCCCCCC(=O)*; γGlu = O=C(O)[C@H](CCC(=O)[*:2])N[*:1]; Hyp = O=C(O)[C@@H]1C[C@@H](O)CN1

Biological target: T1, hAMY3 receptor (Homo sapiens, UniProt O60896+P30988)
T1 sequence (P30988 25-474): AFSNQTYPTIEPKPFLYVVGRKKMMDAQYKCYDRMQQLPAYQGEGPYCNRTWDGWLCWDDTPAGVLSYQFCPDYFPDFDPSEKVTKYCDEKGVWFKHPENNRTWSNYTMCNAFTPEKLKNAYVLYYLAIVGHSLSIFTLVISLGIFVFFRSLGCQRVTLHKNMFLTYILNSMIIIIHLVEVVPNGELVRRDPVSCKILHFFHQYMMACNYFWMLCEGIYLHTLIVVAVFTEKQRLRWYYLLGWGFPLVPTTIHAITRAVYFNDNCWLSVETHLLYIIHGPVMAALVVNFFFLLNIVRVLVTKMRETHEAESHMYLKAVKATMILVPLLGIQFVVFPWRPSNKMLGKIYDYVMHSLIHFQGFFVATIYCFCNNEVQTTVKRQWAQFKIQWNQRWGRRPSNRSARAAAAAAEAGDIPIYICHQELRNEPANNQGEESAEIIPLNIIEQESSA
T1 sequence (O60896 24-148 partner): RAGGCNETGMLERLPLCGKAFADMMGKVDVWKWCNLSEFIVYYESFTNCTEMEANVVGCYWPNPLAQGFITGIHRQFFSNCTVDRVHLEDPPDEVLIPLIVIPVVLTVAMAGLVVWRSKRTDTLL
Assay: cAMP assay for in vitro receptor activation, hAMY3-R
Type: cell-based
Settings: cAMP assay, hAMY3 receptor; read-out: hAMY3R EC50
Outline: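 Receptor activation was measured as cAMP accumulation in a monoclonal cell line stably overexpressing hAMY3. Stimulation with graded doses lasted 30 min at room temperature in the presence of 0.5 mM IBMX, with human amylin as positive control.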

| SMILES | EC50 |
| --- | --- |
| CC[C@H](C)[C@H](NC(=O)[C@H](CCC(N)=O)NC(=O)[C@H](Cc1c[nH]cn1)NC(=O)[C@H](C)NC(=O)[C@H](CC(C)C)NC(=O)[C@H](CCCNC(=N)N)NC(=O)[C@H](C)NC(=O)[C@@H](NC(=O)[C@@H](NC(=O)[C@@H]1CSSC[C@H](NC(=O)[C@H](CCCCN)NC(=O)CC[C@H](NC(=O)CCCCCCCCCCCCCCCCCCC(=O)O)C(=O)O)C(=O)N[C@@H](CC(N)=O)C(=O)N[C@@H]([C@@H](C)O)C(=O)N[C@@H](C)C(=O)N[C@@H]([C@@H](C)O)C(=O)N1)[C@@H](C)O)C(C)C)C(=O)N[C@@H](C)C(=O)N[C@@H](CCC(N)=O)C(=O)N[C@@H](Cc1ccccc1)C(=O)N[C@H](C(=O)N[C@@H](CC(=O)O)C(=O)N[C@@H](CCCCN)C(=O)N[C@@H](CC(=O)O)C(=O)N[C@@H](CCCCN)C(=O)N[C@@H](CC(=O)O)C(=O)N[C@@H](CC(N)=O)C(=O)N[C@H](C(=O)N[C@@H](C)C(=O)N1CCC[C@H]1C(=O)N1CCC[C@H]1C(=O)N[C@H](C(=O)N[C@@H](CC(N)=O)C(=O)N[C@H](C(=O)NCC(=O)N[C@@H](CO)C(=O)N[C@@H](CC(N)=O)C(=O)NCC(=O)N1C[C@H](O)C[C@H]1C(N)=O)C(C)C)[C@@H](C)O)C(C)C)[C@@H](C)O [compound 107] ({C20 diacid-γGlu}-KCNTATCTVARLAHQIAQFTDKDKDNVAPPTNVGSNG[Hyp]-NH2; disulfide 2-7) | 0.019 nM |
| CC(C)C[C@H](NC(=O)[C@H](CCCNC(=N)N)NC(=O)[C@H](CCC(N)=O)NC(=O)[C@@H](NC(=O)[C@@H](NC(=O)[C@@H]1CSSC[C@H](NC(=O)CN)C(=O)N[C@@H](CCCNC(=N)N)C(=O)N[C@@H](Cc2ccccc2)C(=O)NCC(=O)N[C@@H]([C@@H](C)O)C(=O)N1)[C@@H](C)O)C(C)C)C(=O)N[C@@H](C)C(=O)N[C@@H](CC(N)=O)C(=O)N[C@@H](Cc1ccccc1)C(=O)N[C@@H](CC(C)C)C(=O)N[C@@H](Cc1ccc(O)cc1)C(=O)N[C@@H](CCC(N)=O)C(=O)N[C@@H](Cc1ccccc1)C(=O)N[C@H](C(=O)N[C@@H](CC(=O)O)C(=O)N[C@@H](CCCCN)C(=O)N[C@@H](CC(=O)O)C(=O)N[C@@H](CCCCN)C(=O)N[C@@H](CC(=O)O)C(=O)N[C@@H](CC(N)=O)C(=O)N[C@H](C(=O)N[C@@H](C)C(=O)N1CCC[C@H]1C(=O)N[C@@H](CCCNC(=N)N)C(=O)N[C@H](C(=O)N[C@@H](CC(N)=O)C(=O)N[C@H](C(=O)NCC(=O)N1CCC[C@H]1C(=O)N[C@@H](CCC(N)=O)C(=O)NCC(=O)N[C@@H](Cc1ccc(O)cc1)C(N)=O)C(C)C)[C@@H](C)O)C(C)C)[C@@H](C)O [compound 16] (H-GCRFGTCTVQRLANFLYQFTDKDKDNVAPRTNVGPQGY-NH2; disulfide 2-7) | 0.008 nM |
| CC(C)C[C@H](NC(=O)[C@H](CCCNC(=N)N)NC(=O)[C@H](CCC(N)=O)NC(=O)[C@@H](NC(=O)[C@@H](NC(=O)[C@@H]1CSSC[C@H](NC(=O)CN)C(=O)N[C@@H](CCCNC(=N)N)C(=O)N[C@@H](Cc2ccccc2)C(=O)NCC(=O)N[C@@H]([C@@H](C)O)C(=O)N1)[C@@H](C)O)C(C)C)C(=O)N[C@@H](C)C(=O)N[C@@H](Cc1c[nH]cn1)C(=O)N[C@@H](Cc1ccccc1)C(=O)N[C@@H](CC(C)C)C(=O)N[C@@H](Cc1ccc(O)cc1)C(=O)N[C@@H](CCC(N)=O)C(=O)N[C@@H](Cc1ccccc1)C(=O)N[C@H](C(=O)N[C@@H](CC(=O)O)C(=O)N[C@@H](CCCCN)C(=O)N[C@@H](CC(=O)O)C(=O)N[C@@H](CCCCN)C(=O)N[C@@H](CC(=O)O)C(=O)N[C@@H](CC(N)=O)C(=O)N[C@H](C(=O)N[C@@H](C)C(=O)N1CCC[C@H]1C(=O)N[C@@H](CCCNC(=N)N)C(=O)N[C@H](C(=O)N[C@@H](CCCCN)C(=O)N[C@H](C(=O)NCC(=O)N[C@@H](CO)C(=O)N[C@@H](CC(N)=O)C(=O)NCC(=O)N[C@@H](Cc1ccc(O)cc1)C(N)=O)C(C)C)[C@@H](C)O)C(C)C)[C@@H](C)O [compound 117] (H-GCRFGTCTVQRLAHFLYQFTDKDKDNVAPRTKVGSNGY-NH2; disulfide 2-7; N-terminus assumed) | 0.024 nM |

The remaining molecules from weak to strong by EC50, led by results:

| EC50 | SMILES |
| --- | --- |
| 0.039 nM | CC(C)C[C@H](NC(=O)[C@H](CCCNC(=N)N)NC(=O)[C@H](CCC(N)=O)NC(=O)[C@@H](NC(=O)[C@@H](NC(=O)[C@@H]1CSSC[C@H](NC(=O)CNC(=O)CC[C@H](NC(=O)CCCCCCCCCCCCCCCCCCC(=O)O)C(=O)O)C(=O)N[C@@H](CCCNC(=N)N)C(=O)N[C@@H](Cc2ccccc2)C(=O)NCC(=O)N[C@@H]([C@@H](C)O)C(=O)N1)[C@@H](C)O)C(C)C)C(=O)N[C@@H](C)C(=O)N[C@@H](CC(N)=O)C(=O)N[C@@H](Cc1ccccc1)C(=O)N[C@@H](CC(C)C)C(=O)N[C@@H](Cc1ccc(O)cc1)C(=O)N[C@@H](CCC(N)=O)C(=O)N[C@@H](Cc1ccccc1)C(=O)N[C@H](C(=O)N[C@@H](CC(=O)O)C(=O)N[C@@H](CCCCN)C(=O)N[C@@H](CC(=O)O)C(=O)N[C@@H](CCCCN)C(=O)N[C@@H](CC(=O)O)C(=O)N[C@@H](CC(N)=O)C(=O)N[C@H](C(=O)N[C@@H](C)C(=O)N1CCC[C@H]1C(=O)N[C@@H](CCCNC(=N)N)C(=O)N[C@H](C(=O)N[C@@H](CC(N)=O)C(=O)N[C@H](C(=O)NCC(=O)N1CCC[C@H]1C(=O)N[C@@H](CCC(N)=O)C(=O)NCC(=O)N[C@@H](Cc1ccc(O)cc1)C(N)=O)C(C)C)[C@@H](C)O)C(C)C)[C@@H](C)O [compound 386] ({C20 diacid-γGlu}-GCRFGTCTVQRLANFLYQFTDKDKDNVAPRTNVGPQGY-NH2; disulfide 2-7) |
| 0.017 nM | CC[C@H](C)[C@H](NC(=O)[C@H](CCC(N)=O)NC(=O)[C@H](Cc1c[nH]cn1)NC(=O)[C@H](C)NC(=O)[C@H](CC(C)C)NC(=O)[C@H](CCCNC(=N)N)NC(=O)[C@H](CCC(N)=O)NC(=O)[C@@H](NC(=O)[C@@H](NC(=O)[C@@H]1CSSC[C@H](NC(=O)[C@H](CCCCN)NC(=O)CC[C@H](NC(=O)CCCCCCCCCCCCCCCCCCC(=O)O)C(=O)O)C(=O)N[C@@H](CC(N)=O)C(=O)N[C@@H]([C@@H](C)O)C(=O)N[C@@H](C)C(=O)N[C@@H]([C@@H](C)O)C(=O)N1)[C@@H](C)O)C(C)C)C(=O)N[C@@H](Cc1ccc(O)cc1)C(=O)N[C@@H](CCC(N)=O)C(=O)N[C@@H](Cc1ccccc1)C(=O)N[C@H](C(=O)N[C@@H](CC(=O)O)C(=O)N[C@@H](CCCCN)C(=O)N[C@@H](CC(=O)O)C(=O)N[C@@H](CCCCN)C(=O)N[C@@H](CC(=O)O)C(=O)N[C@@H](CC(N)=O)C(=O)N[C@H](C(=O)N[C@@H](C)C(=O)N1CCC[C@H]1C(=O)N[C@@H](CCCNC(=N)N)C(=O)N[C@H](C(=O)N[C@@H](CCCCN)C(=O)N[C@H](C(=O)NCC(=O)N[C@@H](CO)C(=O)N[C@@H](CC(N)=O)C(=O)NCC(=O)N1C[C@H](O)C[C@H]1C(N)=O)C(C)C)[C@@H](C)O)C(C)C)[C@@H](C)O [compound 99] ({C20 diacid-γGlu}-KCNTATCTVQRLAHQIYQFTDKDKDNVAPRTKVGSNG[Hyp]-NH2; disulfide 2-7) |
| 0.012 nM | CC(C)C[C@H](NC(=O)[C@H](CCCNC(=N)N)NC(=O)[C@H](CCC(N)=O)NC(=O)[C@@H](NC(=O)[C@@H](NC(=O)[C@@H]1CSSC[C@H](NC(=O)CN)C(=O)N[C@@H](CCCNC(=N)N)C(=O)N[C@@H](Cc2ccccc2)C(=O)NCC(=O)N[C@@H]([C@@H](C)O)C(=O)N1)[C@@H](C)O)C(C)C)C(=O)N[C@@H](C)C(=O)N[C@@H](Cc1c[nH]cn1)C(=O)N[C@@H](Cc1ccccc1)C(=O)N[C@@H](CC(C)C)C(=O)N[C@@H](Cc1ccc(O)cc1)C(=O)N[C@@H](CCC(N)=O)C(=O)N[C@@H](Cc1ccccc1)C(=O)N[C@H](C(=O)N[C@@H](CC(=O)O)C(=O)N[C@@H](CCCCN)C(=O)N[C@@H](CC(=O)O)C(=O)N[C@@H](CCCCN)C(=O)N[C@@H](CC(=O)O)C(=O)N[C@@H](CC(N)=O)C(=O)N[C@H](C(=O)N[C@@H](C)C(=O)N1CCC[C@H]1C(=O)N[C@@H](CCCNC(=N)N)C(=O)N[C@H](C(=O)N[C@@H](CC(N)=O)C(=O)N[C@H](C(=O)NCC(=O)N1CCC[C@H]1C(=O)N[C@@H](CCC(N)=O)C(=O)NCC(=O)N[C@@H](Cc1ccc(O)cc1)C(N)=O)C(C)C)[C@@H](C)O)C(C)C)[C@@H](C)O [compound 54] (H-GCRFGTCTVQRLAHFLYQFTDKDKDNVAPRTNVGPQGY-NH2; disulfide 2-7; N-terminus assumed) |
| 0.012 nM | CC[C@H](C)[C@H](NC(=O)[C@H](CCC(N)=O)NC(=O)[C@H](Cc1c[nH]cn1)NC(=O)[C@H](C)NC(=O)[C@H](CC(C)C)NC(=O)[C@H](CCCNC(=N)N)NC(=O)[C@H](CCC(=O)O)NC(=O)[C@@H](NC(=O)[C@@H](NC(=O)[C@@H]1CSSC[C@H](NC(=O)[C@H](CCCCN)NC(=O)CC[C@H](NC(=O)CCCCCCCCCCCCCCCCCCC(=O)O)C(=O)O)C(=O)N[C@@H](CC(N)=O)C(=O)N[C@@H]([C@@H](C)O)C(=O)N[C@@H](C)C(=O)N[C@@H]([C@@H](C)O)C(=O)N1)[C@@H](C)O)C(C)C)C(=O)N[C@@H](Cc1ccc(O)cc1)C(=O)N[C@@H](CCC(N)=O)C(=O)N[C@@H](Cc1ccccc1)C(=O)N[C@H](C(=O)N[C@@H](CC(=O)O)C(=O)N[C@@H](CCCCN)C(=O)N[C@@H](CC(=O)O)C(=O)N[C@@H](CCCCN)C(=O)N[C@@H](CC(=O)O)C(=O)N[C@@H](CC(N)=O)C(=O)N[C@H](C(=O)N[C@@H](C)C(=O)N1CCC[C@H]1C(=O)N1CCC[C@H]1C(=O)N[C@H](C(=O)N[C@@H](CC(N)=O)C(=O)N[C@H](C(=O)NCC(=O)N[C@@H](CO)C(=O)N[C@@H](CC(N)=O)C(=O)NCC(=O)N1C[C@H](O)C[C@H]1C(N)=O)C(C)C)[C@@H](C)O)C(C)C)[C@@H](C)O [compound 55] ({C20 diacid-γGlu}-KCNTATCTVERLAHQIYQFTDKDKDNVAPPTNVGSNG[Hyp]-NH2; disulfide 2-7) |
